The values that follow come from patent US6344455B1 (Warner-Lambert Company, priority 1998, dated 2002).

What is called pIC50 is −log10 of the IC50, conventionally taken in molar units.

pIC50: −log10 of the molar value. Read-outs that look alike come from different tables or passages of the source.

Experiment [1] concerns VEGF secretion from A431 cells. The settings on record: for VEGF secretion: 48 hours.
The subject of experiment [2] is human epidermoid carcinoma, A431. In words: In vivo tumor inhibition assay, A431 tumor fragments s.c. in nude mice. The settings on record: for Tumor Growth Delay / Tumor Growth Inhibition: 15 consecutive days; for Tumor Growth Delay: isethionate salt in water, T-C to 750 mg; for Tumor Growth Inhibition: growth delay divided by number of treatments times 100%. The procedure:
The human epidermoid carcinoma, A431, was propagated in vivo by serial transplantation. This tumor model was selected for these studies because of its known dependence upon the EGF receptor for growth and its early stage responsiveness to monoclonal antibody therapy in vivo. In this experiment nude mice weighing 18-22 grams were implanted subcutaneously with 30 mg A431 tumor fragments in the region of the right axilla on Day 0. Tumors were allowed to grow to a mass of 100 to 150 mg, at which time the tumor bearing animals were randomized and distributed into treatment cages. […] The isethionate salts can be prepared by titrating the compounds into solution with 2 equivalents of isethionic acid. Treatment was based on average group weight. The control animals received water. Evaluation of the experiment was based on tumor growth delay, T-C, defined as the difference, in days, for the treated and control tumors to reach an evaluation size of 750 mg. Data can also be represented as the percentage of tumor growth inhibition, defined as the tumor growth delay divided by the number of treatments times 100%. […] Statistical analysis was performed using JMP for Macintosh (SAS Institute, Inc., Cary, N.C. ).

The subject of experiment [3] is heregulin-mediated tyrosine phosphorylation in MDA-MB-453 cells. In words: Heregulin-dependent tyrosine phosphorylation assay, MDA-MB-453 cells, western blot. Particulars: Homo sapiens, 2 hours compound, 10 ng/mL heregulin 5 minutes, read-out: Heregulin-Medidated Tyrosine Phosphorylation IC50. It counts as cell-based. On the procedure: Proteins in the lysate were separated by polyacrylamide gel electrophoresis and electrophoretically transferred to nitrocellulose. […] Band intensities were determined with a laser densitometer.
For orientation: In western blotting, separated proteins are transferred to a membrane and probed.

As to `C=CC(=O)Nc1cc2c(Nc3ccc(F)c(Cl)c3)ncnc2cc1OCCCN1CCOCC1` [compound 1, N-[4-(3-chloro-4-fluoro-phenylamino)-7-(3-morpholin-4-yl-propoxy)-quinazolin-6-yl]-acrylamide], the VEGF secretion in experiment [1] (10 ng/mL EGF stimulated, 0.1 μM compound) is 1490 ± 170 pg/10^5 cells ± SE; in experiment [1] (10 ng/mL EGF stimulated, 0.5 μM compound) it was 560 ± 29 pg/10^5 cells ± SE; in experiment [1] (TGF-alpha stimulated, 0.1 μM compound), 1976 ± 37 pg/10^5 cells ± SE; in experiment [1] (TGF-alpha stimulated, 0.5 μM compound) it was 766 ± 75 pg/10^5 cells ± SE; in experiment [1] (serum free media (basal), 0.1 μM compound) it was 280 ± 41 pg/10^5 cells ± SE; in experiment [1] (serum free media (basal), 0.5 μM compound), 250 ± 46 pg/10^5 cells ± SE. The “effect on EGF- or TGF-alpha stimulated VEGF secretion” value in experiment [1] (0.5 μM, in words) is given as “blocked”. In experiment [1] (basal, in words), the “effect on the basal level of VEGF secretion from A431 cells” value is “appeared to inhibit”. Further, the “Tumor Growth Delay” value in experiment [2] (5 mg/kg perorally) was 53.2 days; in experiment [2] (18 mg/kg perorally), 41.3 days. In addition, the “Tumor Growth Inhibition” value was 355% in experiment [2] (5 mg/kg perorally) and 275% in experiment [2] (18 mg/kg perorally). In addition, the “antitumor response T-C” value in experiment [2] (A431 tumors in vivo, dose not given) came out at 53 days. The pIC50 in experiment [3] was 8.05.
